Data reported in PubChem BioAssay (NCI).
“And” between values parts separate entries of the source, which are not always exact repeats. Identical values can stand only once.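 Results reflect a 48-hour exposure of cells in 96-well plates to compound at five concentrations. At the GI50, growth is halved. TGI marks complete inhibition of growth.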

Assays:
Assay in all cases: NCI-60 cell line screen, 48 h
786-0 renal = system: 786-0 renal
COLO 205 colon = system: COLO 205 colon
DU-145 prostate = system: DU-145 prostate
HCT-15 colon = system: HCT-15 colon
OVCAR-8 ovarian = system: OVCAR-8 ovarian
SK-MEL-5 melanoma = system: SK-MEL-5 melanoma
U251 CNS = system: U251 CNS
UO-31 renal = system: UO-31 renal
SF-295 CNS = system: SF-295 CNS

| Compound | GI50 (786-0 renal) [nM] | TGI (786-0 renal) [µM] | GI50 (COLO 205 colon) [nM] | TGI (COLO 205 colon) | TGI (DU-145 prostate) [µM] | GI50 (HCT-15 colon) [nM] | TGI (HCT-15 colon) | GI50 (OVCAR-8 ovarian) [nM] | TGI (OVCAR-8 ovarian) | GI50 (SK-MEL-5 melanoma) [nM] | GI50 (U251 CNS) [nM] | TGI (U251 CNS) [µM] | GI50 (UO-31 renal) [nM] | TGI (UO-31 renal) [µM] | TGI (SF-295 CNS) [µM] | TGI (SK-MEL-5 melanoma) [µM] | GI50 (DU-145 prostate) [nM] | GI50 (SF-295 CNS) [nM] |
| --- | --- | --- | --- | --- | --- | --- | --- | --- | --- | --- | --- | --- | --- | --- | --- | --- | --- | --- |
| COc1cc(C2c3[nH]c4ccccc4c3C[C@H]3COC(=O)N23)cc(OC)c1OC (some centres undefined) | < 10 | > 100 | < 10 | 0.287 µM and 0.0434 µM | 6.25 | < 10 | 6.72 µM and 1.39 µM | < 10 | 1.71 µM and 0.389 µM | < 10 | < 10 | > 100 | < 10 | 50.1 |  |  |  |  |
| CC1CC[C@]2(C(=O)O)CCC3(COC(=O)/C=C\c4ccc(O)cc4)C(=CCC4[C@@]5(C)CC[C@H](O)C(C)(C)C5CC[C@]43C)[C@@H]2[C@H]1C (some centres undefined) |  | 43.4 |  | 50.9 µM |  |  | > 100 µM |  | 46.3 µM |  |  | 23.4 |  | 32.1 | 31.7 | 40.7 |  |  |
| C=C1C(=O)O[C@H]2[C@H]1CC/C(CNC(=O)Cc1c[nH]c3ccccc13)=C\CC[C@@]1(C)O[C@@H]21 | 1220 | 4.98 | 313 | 1.14 µM | 12.3 | 1580 | 13.1 µM | 1120 | 12.4 µM | 7320 | 2520 | 16.5 | 6000 | 19.3 | 26.6 | 20.3 | 834 | 13000 |
| Cc1c2cc[n+](C)cc2c(C)c2c1sc1ccccc12 |  | 2.9 |  | 7.71 µM | 5.07 |  | > 100 µM |  | 4.8 µM |  |  | 1.15 |  | > 90.7 | 0.783 | 4.56 |  |  |
| Cc1ccc([N+](=O)[O-])cc1NC(=O)Nc1cccc(F)c1 | 14100 | > 100 | 8850 | > 100 µM | 28.4 | 3440 | > 100 µM | 4240 | > 100 µM | 4040 | 3820 | 18.4 | 3360 | 17.6 | 11 | > 100 | 4540 | 2460 |
| O=C(Nc1ccc(Cl)cc1Cl)C1C(=O)N(c2ccc(Cl)cc2Cl)C(=O)/C1=N\Nc1ccc([N+](=O)[O-])cc1[N+](=O)[O-] (centres undefined) |  | > 100 |  | > 100 µM |  |  | > 100 µM |  | > 100 µM |  |  | > 100 |  | > 100 | > 100 | > 100 |  |  |
| CC1CC(C2=CC=CCS2)=Nc2ccccc2S1 (centres undefined) |  | > 100 |  | > 100 µM |  |  | > 100 µM |  | > 100 µM |  |  | > 100 |  | > 100 | > 100 | > 100 |  |  |
| CCN(CC)CCOCC[C@H]1CC[C@H]2[C@@H]3[C@H](C)Cc4cc(OS(N)(=O)=O)ccc4[C@H]3CC[C@]12C | 1280 | 2.6 | 620 | 1.78 µM | 2.94 | 1660 | 4.72 µM | 2050 | 5.67 µM | 1040 | 1180 | 2.59 | 1540 | 3.7 | 2.14 | 2.23 | 1480 | 626 |
| O=C1c2ccccc2-c2c1c1ccccc1c(=O)n2CCCCNCCCn1c2c(c3ccccc3c1=O)C(=O)c1ccccc1-2 | 31.8 | 0.699 | 1510 | 12.7 µM | 1.12 | 143 | 0.624 µM | 256 | 1.5 µM | 529 |  |  | 55.7 | 7.23 | 2.33 | 1.49 | 379 | 270 |
| COc1ccc2[nH]c(=O)c3c4ccccc4cn3c2c1 | 553 | 1.95 | 373 | 1.36 µM | 3.63 | 310 | 1.4 µM | 1090 | 3.29 µM | 377 | 388 | 1.55 | 689 | 4.73 | 1.71 | 1.44 | 604 | 393 |
| Cc1ccc(S(=O)(=O)N[C@H](C(=O)O)c2ccccc2)cc1 |  | > 100 |  | > 100 µM |  |  | > 100 µM |  | > 100 µM |  |  | > 100 |  | > 100 | > 100 | > 100 |  |  |
| CCSCC1CC(O)(c2ccccc2)C(c2ccccc2)C(c2ccc(Cl)cc2)O1 (centres undefined) | 1640 | 3.26 | 1530 | 2.94 µM | 4.4 | 1690 | 4.5 µM | 2270 | 5.37 µM | 1640 | 1630 | 3.32 | 1070 | 2.43 | 3.73 | 3.01 | 1990 | 1560 |
| COc1ccc(C(=O)c2cc(OC)c(OC)c(OC)c2)cc1 |  | > 79.2 |  | 3.69 µM | 1.58 |  |  |  | 31.7 µM |  |  | 9.74 |  | 61.9 | 0.196 | 26.3 |  |  |
| Cc1cccc(NC(=O)CCc2ccc(N3C(N)=NC(N)=NC3(C)C)cc2)c1 | 18900 | > 100 | 7800 | > 100 µM | > 100 | > 100000 | > 100 µM | 13600 | > 100 µM | 2480 | 675 | > 100 | > 100000 | > 100 | > 76.3 | > 100 | 941 | 2560 |
| O=C(Nc1ccccc1-c1n[nH]c(=S)[nH]c1=O)C(F)(F)F |  | > 100 |  | > 100 µM |  |  | > 100 µM |  | > 100 µM |  |  | > 100 |  | > 100 | > 100 | > 100 |  |  |
| Cc1c(N2CCCC2)cc2c(c1NC(=O)c1ccccc1Cl)C(C)(C)CC2(C)C |  | 27.8 |  | 35.2 µM | 29.3 |  | 28.3 µM |  | 32.6 µM |  |  | 27.6 |  | 26.4 | 26.8 | 33.7 |  |  |
